“And” between values parts separate entries of the source, which are not always exact repeats. Equal values may be shown once.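 Grown in 96-well plates, cells were treated for 48 hours with each compound at five concentrations. Insufficient inhibition: endpoint recorded as highest concentration tested. GI50 = concentration required for 50% inhibition of growth. Definition used: TGI = concentration required for complete inhibition of growth.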
Assays:
Test in all cases: NCI anticancer screen, dose series, 48 h
OVCAR-8 ovarian = system: OVCAR-8 ovarian
TK-10 renal = system: TK-10 renal
SW-620 colon = system: SW-620 colon
A498 renal = system: A498 renal
SR leukemia = system: SR leukemia
HT29 colon = system: HT29 colon
NCI-H522 lung = system: NCI-H522 lung
HCT-15 colon = system: HCT-15 colon
HCT-116 colon = system: HCT-116 colon
M14 melanoma = system: M14 melanoma

SMILES | TGI (OVCAR-8 ovarian) [µM] | TGI (TK-10 renal) [µM] | TGI (SW-620 colon) [µM] | TGI (A498 renal) [µM] | TGI (SR leukemia) [µM] | TGI (HT29 colon) [µM] | TGI (NCI-H522 lung) [µM] | TGI (HCT-15 colon) [µM] | TGI (HCT-116 colon) [µM] | TGI (M14 melanoma) | GI50 (OVCAR-8 ovarian) [µM] | GI50 (TK-10 renal) [µM] | GI50 (SW-620 colon) [µM] | GI50 (A498 renal) [µM] | GI50 (SR leukemia) [µM] | GI50 (HT29 colon) [µM] | GI50 (NCI-H522 lung) [µM] | GI50 (HCT-15 colon) [µM] | GI50 (HCT-116 colon) [µM] | GI50 (M14 melanoma) [µM]
N#CC1CC2(C1)OCCS2 (stereo not given) | > 100 | > 100 | > 100 | > 100 | > 100 | > 100 | > 100 | > 100 | > 100 | > 100 µM | – | – | – | – | – | – | – | – | – | –
O=C1Nc2ccc(F)cc2/C1=C/c1ccc[nH]1 | > 25 | > 25 | > 25 | > 25 | > 25 | > 25 | > 25 | > 25 | > 25 | > 25 µM | > 25 | 14.4 | 24.6 | > 25 | 7.84 | > 25 | > 25 | 11.5 | > 23.7 | > 25
COc1ccc(OC)c2c(C(=O)O)c(Cc3ccccc3)ccc12 | > 100 | > 100 | > 100 | > 100 | > 100 | > 100 | > 100 | > 100 | > 100 | > 100 µM | – | – | – | – | – | – | – | – | – | –
Br[C](Br)(Br)[Hg][c]1ccccc1 | 18.4 | 31.4 | 8.01 | 30 | 20.4 | 25.5 | 3.05 | 24 | 47.9 | 12.2 µM | 12.9 | 17.5 | 1.65 | 16.2 | 3.32 | 11.1 | 1.44 | 9.39 | 19.7 | 5.23
CC1=C(O)C(=O)C=C2C1=CC=C1[C@@]2(C)CC[C@@]2(C)[C@@H]3C[C@](C)(C(=O)O)CC[C@]3(C)CC[C@]12C | 0.0712 | 0.0804 | – | 0.142 | 0.0336 | 0.145 | 0.0389 | 0.0282 | 0.0637 | 0.141 µM | – | – | – | – | – | – | – | – | – | –
CCOC(=O)c1ccc(C)c(N=NN(C)C)c1 | > 100 | > 100 | > 100 | > 100 | > 100 | > 100 | > 100 | > 100 | > 100 | > 100 µM | – | – | – | – | – | – | – | – | – | –
COc1cccc(C#Cc2ccccc2C#CCCCCO)c1 | 27.9 | 29.6 | 35.9 | 23.8 | 12.1 | 27.9 | 30 | 17.7 | 26.4 | – | 12.5 | 13.1 | 17.5 | 10.3 | 1.95 | 12.1 | 13.3 | 3.62 | 12.2 | –
C/C(N=NC(=S)N(C)C)=C1\C=CC=CN1O | > 94.1 | > 100 | > 100 | > 100 | > 100 | > 100 | > 56.2 | > 84.1 | > 100 | > 100 µM | – | – | – | – | – | – | – | – | – | –
COc1cccc2c(=O)c3c(sc12)c(N1CCNCC1)nc1ccccc13 | 6.5 | 3.44 | 3.09 | 3.14 | > 100 | 3.11 | 3.69 | 3.09 | 3.28 | 3.48 µM | 2.43 | 1.85 | 1.49 | 1.69 | 0.622 | 1.46 | 1.79 | 1.53 | 1.55 | 1.86
CCCCCCCCCCCCCCCCCCOc1ccccc1CC(=O)OCC[N+]1(C)CCCC1 | – | 3.08 | – | 8.82 | 6.92 | – | – | 21 | – | 5.46 µM | – | 1.52 | – | 2.18 | 2.47 | – | – | 4.1 | – | 2.28
O=C1CSC(/C(=N/Nc2ccccc2)c2nc3ccccc3[nH]2)=N1 | > 100 | > 100 | > 100 | > 100 | 31.1 | > 100 | > 100 | > 100 | > 100 | > 100 µM | – | – | – | – | – | – | – | – | – | –
CN(C)C(=O)[C@H](O)[C@H](Cc1ccccc1)NC(=O)c1cc2cc(Cl)ccc2[nH]1 | > 100 | 67 | > 100 | 54.1 | 88.7 | 48.8 | 68.7 | 81.5 | > 87 | 67.6 µM | 28.8 | 24.3 | 26.4 | 12.1 | 26.6 | 20.3 | 21.5 | 22.4 | 25 | 23.2
O=c1c2ccccc2c(=O)c2c1[nH]c1c(-c3ccccc3)c(-c3ccccc3)c(=O)c12 | 9.33 | 52.3 | 14.1 | 7.69 | 13.5 | > 100 | 5.73 | 4.22 | 4.87 | 5.63 µM | 2.79 | 4.84 | 3.85 | 3.12 | 2.15 | 4.29 | 2.19 | 1.31 | 2.31 | 2.41
O=C1[C@@H]2C(c3ccccc3F)=NO[C@@H]2C(=O)N1c1ccc(Cc2ccc(N3C(=O)[C@H]4C(c5ccccc5F)=NO[C@H]4C3=O)cc2)cc1 | > 100 | > 31.6 | > 100 | > 100 | > 100 | > 100 | > 100 | > 100 | > 100 | > 100 µM | – | – | – | – | – | – | – | – | – | –
Nc1nc(F)nc2c1ncn2C1OC(CO)C(O)C1O (stereo not given) | > 100 | > 100 | > 100 | > 100 | > 100 | > 100 | > 100 | > 100 | > 100 | > 58.6 µM and 40.2 µM | 3.64 | – | 60.2 | > 100 | > 68.9 | – | 18.4 | 56.7 | 19.4 | 6.39
ClCC[N+]12CC[N+](CCCl)(CC1)C2 | > 100 | > 100 | > 100 | > 100 | > 100 | > 100 | > 100 | > 100 | > 100 | > 100 µM | – | – | – | – | – | – | – | – | – | –
